Experimental data as given in the OPERA property sets (Mansouri et al. 2018).

Conditions: not given
`C=CCN` showed a boiling point of 53.3 °C, a log10 vapour pressure (mmHg) of 2.38 and a melting point of -88.2 °C.
With `CCC[C@@H](O)CC` the boiling point was 135 °C and the log10 vapour pressure (mmHg) was 0.682.
With `CCOC(=O)CCC(=O)O` the melting point was 8 °C.
In the case of `O=C1CCCc2ccccc21`, the melting point was 8 °C.
Work on `COc1c(F)c(F)cc(F)c1F` yielded a boiling point of 138 °C.
`Oc1ccccc1-c1nc2ccccc2s1` gave a melting point of 131 °C.
With `CCCCCCCCCC(=O)N(CCO)CCO` the ready biodegradability was “readily biodegradable”.
In the case of `CCOC(=O)C=CCC(=O)OCC`, the boiling point was 237 °C.
For `CC1(C)C(O)=CC(=O)C=C1O`, the melting point was 214 °C.
`O=Cc1ccccc1Br` showed a boiling point of 230 °C and a melting point of 21.5 °C.
Work on `CCN(N)CC` yielded a boiling point of 99 °C.
With `O=c1cccccc1` the melting point was -7 °C.
In the case of `Clc1ccc2ccc(Cl)cc2c1`, the log10 Koa was 6.7.
`C=COC(C)(C)C` gave a boiling point of 75 °C and a melting point of -112 °C.
In the case of `c1ccc2c(c1)nnn2C1CCCCC1`, the melting point was 104 °C.
Work on `O=c1[nH]c2ccccc2n1CCCN1CCN(C(c2ccccc2)c2ccccc2)CC1` yielded a melting point of 154 °C.
For `C=COCC(F)(F)F`, the boiling point was 42.5 °C.
For `Cc1cc(N)c(S(=O)(=O)O)cc1Cl`, the ready biodegradability was “not readily biodegradable”.
`Cc1ccc(C(=O)N(C)C)cc1` showed a melting point of 41 °C.
`c1cc2c3c(cccc3c1)CC2` gave a boiling point of 279 °C, a log10 Henry constant (atm·m³/mol) of -3.74 and a log10 Koa of 6.31. For the same compound, the log10 Koc (L/kg) was 3.59, the log10 biodegradation half-life (days) was 1.59 and the log10 vapour pressure (mmHg) was -2.67. For the same compound, the melting point was 93.4 °C and the ready biodegradability was “not readily biodegradable”.
With `CC(Cl)CCCl` (centres undefined) the boiling point was 134 °C.
For `CCOP(=S)(OCC)SCC(=O)NC(C)C`, the melting point was 28.5 °C.
Compound `Nc1cccc2cc3ccccc3nc12` has a melting point of 108 °C.
Compound `CCC(C)CC(CC)CC` (centres undefined) has a boiling point of 158 °C.
Compound `O=C(Cl)Cc1ccccc1` has a log10 vapour pressure (mmHg) of -0.702.
With `O=C(O)C=Cc1ccc(O)cc1` the ready biodegradability was “readily biodegradable”.
Work on `Cc1ccc2c(c1)CCC2` yielded a boiling point of 202 °C and a log10 biodegradation half-life (days) of 0.301.
`Cc1ccccc1I` showed a boiling point of 212 °C and a log10 vapour pressure (mmHg) of -0.344.
Work on `C=C[C@H]1CN2CCC1C[C@@H]2[C@@H](O)c1ccnc2ccccc12` (some centres undefined) yielded a melting point of 238 °C.
`COC(=O)c1cccc(O)c1` showed a boiling point of 281 °C and a melting point of 73 °C.
For `O=C(OC1CCCCC1)c1ccccc1C(=O)OC1CCCCC1`, the log10 vapour pressure (mmHg) was -6.06, the melting point was 66 °C and the ready biodegradability was “readily biodegradable”.
Work on `C=CCc1cc(OC)c(OC)c(OC)c1OC` yielded a melting point of 25 °C.
`COc1ccc(/C=C/NC=O)cc1` gave a melting point of 132 °C.
With `C#CCCOC1CCCCO1` (centres undefined) the ready biodegradability was “readily biodegradable”.
`O=C1C(CCS(=O)c2ccccc2)C(=O)N(c2ccccc2)N1c1ccccc1` (centres undefined) showed a melting point of 136 °C.
In the case of `O=C(O)[C@@H]1CCc2ccccc2C1`, the melting point was 97.7 °C.
With `CCO[Si](C)(C)OCC` the boiling point was 114 °C, the log10 vapour pressure (mmHg) was 1.3 and the melting point was -87 °C.
Work on `FC(F)OCC(F)(F)F` yielded a boiling point of 29.3 °C and a log10 vapour pressure (mmHg) of 2.81.
`Nc1ccc(-c2ccc(N)c(N)c2)cc1N` showed a melting point of 176 °C.
In the case of `CC1(C)[C@H]2CC=C(CO)[C@@H]1C2`, the boiling point was 222 °C.
In the case of `CCCCCCCOO`, the melting point was 35.5 °C.
Compound `O=C(O)c1c(F)cccc1Cl` has a melting point of 160 °C.
`CCOc1ccc(C(COCc2cccc(Oc3ccc(Cl)cc3)c2)C(F)(F)F)cc1` (centres undefined) showed a log10 vapour pressure (mmHg) of -9.01.
For `C=CC(=O)OCC(CO)(COC(=O)C=C)COC(=O)C=C`, the ready biodegradability was “not readily biodegradable”.
In the case of `CCCNC(=O)NS(=O)(=O)c1ccc(Cl)cc1`, the melting point was 128 °C.
Compound `Oc1ccc([C@H](O)[C@H]2CCCCN2)cc1O` has a melting point of 204 °C.
In the case of `O=C(O)c1ccccc1-c1ccccc1`, the boiling point was 344 °C and the melting point was 114 °C.
With `OC1CCCCCCCCCCCCCC1` the melting point was 80.5 °C.
`C/C=C(/C)C(=O)O[C@H]1CCN2CC=C(COC(=O)[C@](O)([C@H](C)OC)C(C)(C)O)[C@H]12` showed a melting point of 95 °C.
Compound `CC(C)C(Br)C(=O)NC(N)=O` (centres undefined) has a melting point of 154 °C.
In the case of `N#C[C@H](O[C@@H]1O[C@H](CO[C@@H]2O[C@H](CO)[C@@H](O)[C@H](O)[C@H]2O)[C@@H](O)[C@H](O)[C@H]1O)c1ccccc1`, the melting point was 224 °C.
In the case of `CCCCCCCCCCCCCC(O)CC` (centres undefined), the melting point was 50 °C.

Same assay, conditions: fish
Compound `c1cc2c3c(cccc3c1)CC2` has a log10 BCF of 2.88.
